# Measured values from publication PMC6694155, “PTPσ inhibitors promote hematopoietic stem cell regeneration” (Nature Communications, 2019).
# Several values for one entry are separate records, joined by “and”; a condition that tells them apart may be missing. Equal entries are not always repeated.
# What was measured:
# BM KSL cells = assay: CFC assay, 3 day culture of non-irradiated BM KSL cells; format: cell-based, mouse; settings: for Supplementary Figure 3b: BFU-E / Supplementary Figure 3b: CFU-GEMM / Supplementary Figure 3b: CFU-GM: non-irradiated BM KSL cells, replicates
# Procedure: CFC assays (colony-forming unit-granulocyte monocyte), burst-forming unit-erythroid, and CFU-GEMM were performed using MethoCult GF M3434 (Stemcell Technologies)[6]. For all in vitro assays, BM CD34^−KSL cells, KSL cells, and Lin^− cells were cultured in TSF media (IMDM, 10% FBS, 1% pen-strep, 20 ng/mL recombinant mouse TPO, 125 ng/mL recombinant mouse SCF, 50 ng/mL recombinant mouse Flt3 ligand). Recombinant mouse SCF, Flt3 ligand, and TPO were purchased from R&D Systems. For competitive repopulation assays, BM cells were isolated from donor 10–12-week-old female CD45.2^+ mice. Recipient 10-week-old female CD45.1^+ B6.SJL mice were irradiated with 950 cGy TBI using a Cs137 irradiator and donor BM cells were administered via tail vein injection along with a competing dose of 1 × 10^5 non-irradiated host BM cells. Multilineage donor hematopoietic cell engraftment was measured in the PB by flow cytometry.
# p-PAK1 in BM KSL cells = assay: p-PAK1 phospho-flow cytometry of BM KSL cells; format: cell-based, mouse
# Procedure: Intracellular flow cytometric analysis was performed on irradiated (300 cGy) or non-irradiated, sorted KSL cells after treatment with 1 μg/mL DJ001 or control (equal volumes of DMSO) for 24 h. At 24 h after irradiation, cells were fixed with 4% PFA for 10 min, followed by permeabilization using 0.25% saponin in PBS. Cells were washed again and stained with antibody at the recommended concentrations for 30 min at RT. Intracellular antibodies and phospho-flow antibodies used were as follows: FITC-conjugated anti-BCL-XL (Abcam, #26148, 1:100), active RAC1-GTP antibody (NewEast Biosciences, #26903, 1:100) and anti-PAK1 (phospho S144) + PAK2 (phospho S141) + PAK3 (phospho S154) antibody (Abcam, #40795, 1:100), and FITC-conjugated goat anti-rabbit IgG H&L (Abcam, #97050, 1:200).
# [1] = target: T1, PTP1B (Protein Tyrosine Phosphatase 1B) (Homo sapiens, UniProt P18031); assay: PhosphataseProfiler screen: PTP1B; format: biochemical; settings: replicates
# T1 construct: purchased Eurofins Pharma Discovery Services UK
# T1 sequence (P18031 whole entry, species assumed): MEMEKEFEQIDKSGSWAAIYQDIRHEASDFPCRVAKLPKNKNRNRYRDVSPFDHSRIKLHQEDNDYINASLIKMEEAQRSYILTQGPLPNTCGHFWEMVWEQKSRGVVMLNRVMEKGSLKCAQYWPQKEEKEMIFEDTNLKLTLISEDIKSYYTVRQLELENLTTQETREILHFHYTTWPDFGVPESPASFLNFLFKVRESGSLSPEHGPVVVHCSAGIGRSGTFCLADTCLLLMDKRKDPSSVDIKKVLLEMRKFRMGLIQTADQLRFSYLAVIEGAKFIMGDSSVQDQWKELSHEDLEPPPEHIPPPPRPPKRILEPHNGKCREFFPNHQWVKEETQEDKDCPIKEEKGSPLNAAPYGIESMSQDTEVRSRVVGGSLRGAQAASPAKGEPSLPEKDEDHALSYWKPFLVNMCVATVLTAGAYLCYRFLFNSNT
# Procedure: (§1) Compound DJ001 was evaluated in a PhosphataseProfiler™ screen at 10 μM and 1 μM (2.7 μg/mL and 0.27 μg/mL) concentrations at Eurofins Pharma Discovery Services UK (Study number UK022-0004033) against a panel of 21 Phosphatases. In each experiment, the respective reference antagonist/agonist was tested directly with DJ001 and the data were compared with historical values determined at Eurofins. DJ001 compound inhibition was calculated as percentage inhibition of the enzymatic activity compared with control.
# [2] = target: T2, PTPN22 (Protein Tyrosine Phosphatase Non-Receptor Type 22) (Homo sapiens, UniProt Q9Y2R2); assay: PhosphataseProfiler screen: PTPN22; format: biochemical; settings: replicates
# T2 construct: purchased Eurofins Pharma Discovery Services UK
# T2 sequence (Q9Y2R2 whole entry, species assumed): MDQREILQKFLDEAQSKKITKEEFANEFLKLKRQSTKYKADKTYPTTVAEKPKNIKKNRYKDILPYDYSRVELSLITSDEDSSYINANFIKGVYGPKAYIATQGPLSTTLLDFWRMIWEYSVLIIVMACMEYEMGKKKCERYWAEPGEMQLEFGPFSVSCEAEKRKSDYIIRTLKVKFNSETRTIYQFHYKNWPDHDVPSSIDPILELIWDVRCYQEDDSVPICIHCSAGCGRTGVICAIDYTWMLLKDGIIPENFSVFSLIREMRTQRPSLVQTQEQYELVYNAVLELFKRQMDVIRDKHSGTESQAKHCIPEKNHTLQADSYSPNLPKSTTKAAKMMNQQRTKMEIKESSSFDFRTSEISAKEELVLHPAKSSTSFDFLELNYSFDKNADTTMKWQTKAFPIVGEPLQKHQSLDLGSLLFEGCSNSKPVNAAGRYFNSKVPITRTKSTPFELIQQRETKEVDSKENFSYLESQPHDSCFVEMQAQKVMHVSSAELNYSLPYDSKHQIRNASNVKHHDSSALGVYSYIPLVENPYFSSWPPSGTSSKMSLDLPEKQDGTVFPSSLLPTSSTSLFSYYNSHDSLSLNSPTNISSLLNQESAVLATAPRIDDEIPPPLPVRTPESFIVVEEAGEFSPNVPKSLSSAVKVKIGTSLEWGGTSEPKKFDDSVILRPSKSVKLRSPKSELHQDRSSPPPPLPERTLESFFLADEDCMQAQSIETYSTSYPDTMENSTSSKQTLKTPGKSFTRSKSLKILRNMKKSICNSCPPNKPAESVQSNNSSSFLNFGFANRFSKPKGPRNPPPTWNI
# Procedure: as §1
# [3] = target: T3, RPTPμ (Receptor Protein Tyrosine Phosphatase Mu) (Homo sapiens, UniProt P28827); assay: PhosphataseProfiler screen: RPTPμ; format: biochemical; settings: replicates
# T3 construct: purchased Eurofins Pharma Discovery Services UK
# T3 sequence (P28827 21-1452, species assumed): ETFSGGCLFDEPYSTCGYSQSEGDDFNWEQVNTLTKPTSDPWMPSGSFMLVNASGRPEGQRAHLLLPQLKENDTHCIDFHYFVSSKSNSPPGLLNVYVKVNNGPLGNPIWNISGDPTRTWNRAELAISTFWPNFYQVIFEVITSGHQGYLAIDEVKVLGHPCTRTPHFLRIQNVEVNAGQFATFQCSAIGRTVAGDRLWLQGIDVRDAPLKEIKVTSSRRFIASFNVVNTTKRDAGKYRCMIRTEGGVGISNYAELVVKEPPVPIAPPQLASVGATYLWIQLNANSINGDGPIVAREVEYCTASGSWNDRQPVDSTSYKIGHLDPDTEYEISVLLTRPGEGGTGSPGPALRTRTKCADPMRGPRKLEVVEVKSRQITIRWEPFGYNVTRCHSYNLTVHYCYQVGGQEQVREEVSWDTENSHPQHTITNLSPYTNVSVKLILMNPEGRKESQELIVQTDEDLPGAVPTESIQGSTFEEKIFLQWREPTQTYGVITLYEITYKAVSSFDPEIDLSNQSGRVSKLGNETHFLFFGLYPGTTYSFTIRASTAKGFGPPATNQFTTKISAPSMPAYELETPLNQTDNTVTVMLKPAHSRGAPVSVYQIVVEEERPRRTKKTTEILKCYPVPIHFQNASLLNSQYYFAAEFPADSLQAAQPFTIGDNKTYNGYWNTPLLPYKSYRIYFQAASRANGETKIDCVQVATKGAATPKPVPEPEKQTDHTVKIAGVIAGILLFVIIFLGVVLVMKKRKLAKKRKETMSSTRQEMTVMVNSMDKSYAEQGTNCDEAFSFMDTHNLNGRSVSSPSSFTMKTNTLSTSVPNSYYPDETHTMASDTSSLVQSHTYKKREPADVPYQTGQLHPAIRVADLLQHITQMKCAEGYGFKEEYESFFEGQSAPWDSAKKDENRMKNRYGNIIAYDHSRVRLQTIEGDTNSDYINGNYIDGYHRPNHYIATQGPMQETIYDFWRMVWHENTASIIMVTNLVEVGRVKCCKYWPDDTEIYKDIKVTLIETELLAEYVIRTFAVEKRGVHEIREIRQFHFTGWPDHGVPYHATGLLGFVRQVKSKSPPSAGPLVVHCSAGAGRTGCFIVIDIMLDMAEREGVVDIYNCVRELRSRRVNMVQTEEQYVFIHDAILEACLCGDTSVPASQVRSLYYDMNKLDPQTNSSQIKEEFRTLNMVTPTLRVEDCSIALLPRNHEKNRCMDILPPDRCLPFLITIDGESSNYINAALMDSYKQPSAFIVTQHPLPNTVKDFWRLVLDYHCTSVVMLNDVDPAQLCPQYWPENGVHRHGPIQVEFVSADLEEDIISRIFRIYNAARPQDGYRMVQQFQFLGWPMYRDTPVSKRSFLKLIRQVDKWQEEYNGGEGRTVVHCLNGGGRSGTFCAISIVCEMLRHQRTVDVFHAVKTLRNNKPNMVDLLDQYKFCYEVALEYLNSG
# Procedure: as §1
# [4] = target: T4, TCPTP (T-Cell Protein-Tyrosine Phosphatase) (Homo sapiens, UniProt P17706); assay: PhosphataseProfiler screen: TCPTP; format: biochemical; settings: replicates
# T4 construct: purchased Eurofins Pharma Discovery Services UK
# T4 sequence (P17706 whole entry, species assumed): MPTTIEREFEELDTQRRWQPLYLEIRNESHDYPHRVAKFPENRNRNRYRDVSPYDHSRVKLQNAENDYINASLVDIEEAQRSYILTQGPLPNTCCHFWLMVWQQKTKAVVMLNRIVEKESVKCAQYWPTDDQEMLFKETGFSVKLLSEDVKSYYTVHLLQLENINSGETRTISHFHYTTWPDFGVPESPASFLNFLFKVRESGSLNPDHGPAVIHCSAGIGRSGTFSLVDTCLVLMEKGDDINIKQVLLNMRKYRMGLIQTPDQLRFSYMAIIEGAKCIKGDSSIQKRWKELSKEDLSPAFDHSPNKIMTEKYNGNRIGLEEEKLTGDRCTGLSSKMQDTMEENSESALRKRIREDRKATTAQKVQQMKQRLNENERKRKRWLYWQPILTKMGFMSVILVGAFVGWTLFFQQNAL
# Procedure: as §1
# [5] = target: T5, LMPTP-A (Low Molecular Weight Protein Tyrosine Phosphatase A) (Homo sapiens, UniProt P24666); assay: PhosphataseProfiler screen: LMPTP-A; format: biochemical; settings: replicates
# T5 construct: purchased Eurofins Pharma Discovery Services UK
# T5 sequence (P24666 whole entry, species assumed): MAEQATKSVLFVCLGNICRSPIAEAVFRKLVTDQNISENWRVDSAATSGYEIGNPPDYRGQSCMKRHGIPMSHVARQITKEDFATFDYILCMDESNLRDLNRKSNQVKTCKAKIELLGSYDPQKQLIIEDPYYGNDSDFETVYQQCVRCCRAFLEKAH
# Procedure: as §1
# [6] = target: T6, PPα (Protein Phosphatase 1 Catalytic Subunit alpha) (Homo sapiens, UniProt P62136); assay: PhosphataseProfiler screen: PPα; format: biochemical; settings: replicates
# T6 construct: purchased Eurofins Pharma Discovery Services UK
# T6 sequence (P62136 whole entry): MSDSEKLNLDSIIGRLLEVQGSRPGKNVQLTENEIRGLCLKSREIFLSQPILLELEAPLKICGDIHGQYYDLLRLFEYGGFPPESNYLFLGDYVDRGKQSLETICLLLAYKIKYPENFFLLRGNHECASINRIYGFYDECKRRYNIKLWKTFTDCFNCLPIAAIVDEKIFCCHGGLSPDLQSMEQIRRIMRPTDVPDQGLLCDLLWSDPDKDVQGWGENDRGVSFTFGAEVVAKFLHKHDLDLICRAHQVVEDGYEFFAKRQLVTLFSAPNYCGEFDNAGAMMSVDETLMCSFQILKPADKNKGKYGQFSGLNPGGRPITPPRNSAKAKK
# Procedure: as §1
# [7] = target: T7, MKP5 (Mitogen-activated Protein Kinase Phosphatase 5) (Homo sapiens, UniProt Q9Y6W6); assay: PhosphataseProfiler screen: MKP5; format: biochemical; settings: 0.27 g/mL DJ001; replicates
# T7 construct: purchased Eurofins Pharma Discovery Services UK
# T7 sequence (Q9Y6W6 whole entry, species assumed): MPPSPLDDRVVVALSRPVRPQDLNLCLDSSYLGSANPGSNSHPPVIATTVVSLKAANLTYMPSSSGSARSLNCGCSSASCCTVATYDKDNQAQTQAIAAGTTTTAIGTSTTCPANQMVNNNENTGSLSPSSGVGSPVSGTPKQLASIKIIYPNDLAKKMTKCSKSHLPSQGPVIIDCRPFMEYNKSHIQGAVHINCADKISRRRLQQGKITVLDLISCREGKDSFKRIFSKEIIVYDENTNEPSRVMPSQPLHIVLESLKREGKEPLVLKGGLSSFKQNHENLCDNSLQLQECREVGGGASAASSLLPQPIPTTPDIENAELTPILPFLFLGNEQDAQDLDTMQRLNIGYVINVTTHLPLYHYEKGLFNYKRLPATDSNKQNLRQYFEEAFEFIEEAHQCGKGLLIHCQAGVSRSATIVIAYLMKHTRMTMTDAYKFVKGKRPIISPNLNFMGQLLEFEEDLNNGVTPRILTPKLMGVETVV
# Procedure: as §1
# C57BL/6 mice = assay: 5FU chemotherapy model, hematologic recovery; format: in vivo, mouse
# Procedure: Ten-week-old female C57BL/6 mice received a single tail vein injection of 250 mg/kg 5FU in 100 μL PBS. Two hours post 5FU injection, mice were administered daily subcutaneous injections of 5 mg/kg (100 μg per mouse) DJ001 or vehicle in a volume of 100 μL for 8 days. DJ001 injections were prepared in PBS, 50% PEG-400, and 10% DMSO. Corresponding vehicle injections contained PBS, 50% PEG-400, and 10% DMSO. Retro-orbital blood was collected on day + 8, + 11, and + 14 after 5FU treatment with capillary pipettes (Fisher Scientific). Complete blood counts were measured using a Hemavet 950 instrument (Drew Scientific).
# [8] = target: T8, LMPTP-B (Low Molecular Weight Protein Tyrosine phosphatase B) (Homo sapiens, UniProt P24666); assay: PhosphataseProfiler screen: LMPTP-B; format: biochemical; settings: replicates
# T8 construct: purchased Eurofins Pharma Discovery Services UK
# T8 sequence (P24666 1-158 isoform P24666-2, species assumed): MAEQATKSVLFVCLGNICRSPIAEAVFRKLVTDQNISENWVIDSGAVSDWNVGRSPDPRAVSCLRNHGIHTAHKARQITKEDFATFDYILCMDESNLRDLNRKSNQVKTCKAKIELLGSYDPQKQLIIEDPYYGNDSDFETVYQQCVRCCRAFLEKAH
# Procedure: as §1
# [9] = day +8 following 250 mg/kg 5FU, 5 mg/kg DJ001 SQ daily
# [10] = day +11 following 250 mg/kg 5FU, 5 mg/kg DJ001 SQ daily
# [11] = day +14 following 250 mg/kg 5FU, 5 mg/kg DJ001 SQ daily
smiles,measurement,setting,value
"O=C(/C=C\Nc1cccc([N+](=O)[O-])c1)c1ccccc1 [DJ001, (Z)-3-((3-nitrophenyl)amino)-1-phenylprop-2-en-1-one]",Supplementary Figure 3b: BFU-E,BM KSL cells; 10 ng/mL,0 (4×) and 1 and 2
same,Supplementary Figure 3b: CFU-GEMM,BM KSL cells; 10 ng/mL,2 and 4 (2×) and 7 (2×) and 3
same,Supplementary Figure 3b: CFU-GM,BM KSL cells; 10 ng/mL,21 and 22 and 19 and 15 (2×) and 18
same,Supplementary Figure 3b: BFU-E,BM KSL cells; 100 ng/mL,1 (3×) and 3 and 2
same,Supplementary Figure 3b: CFU-GEMM,BM KSL cells; 100 ng/mL,8 (2×) and 7 and 6 and 5
same,Supplementary Figure 3b: CFU-GM,BM KSL cells; 100 ng/mL,23 and 20 and 24 (2×) and 21
same,Supplementary Figure 3b: BFU-E,BM KSL cells; 1000 ng/mL,3 and 2 (3×) and 1
same,Supplementary Figure 3b: CFU-GEMM,BM KSL cells; 1000 ng/mL,6 (3×) and 8 and 9
same,Supplementary Figure 3b: CFU-GM,BM KSL cells; 1000 ng/mL,27 and 30 and 28 (2×) and 25
same,Supplementary Figure 3b: BFU-E,BM KSL cells; 5 µg/mL,2 and 4 and 1 (3×) and 0
same,Supplementary Figure 3b: BFU-E,BM KSL cells; 10 µg/mL,3 (2×) and 2 (2×) and 1 (2×)
same,Supplementary Figure 3b: CFU-GEMM,BM KSL cells; 10 µg/mL,3 (3×) and 2 (2×) and 1
same,Supplementary Figure 3b: CFU-GM,BM KSL cells; 10 µg/mL,14 (2×) and 17 and 16 and 15 and 12
same,number of BM CFCs in 3 day culture of BM KSL cells,BM KSL cells; 10 – 100 ng/ml DJ001,significantly increased the number of BM CFCs
same,numbers of CFCs vs control,BM KSL cells; 3 day culture of non-irradiated BM KSL cells,significantly increased the numbers of colony forming cells (CFCs)
same,Supplementary Figure 3b: CFU-GEMM,BM KSL cells,3 (4×) and 6 and 4
same,Supplementary Figure 3b: CFU-GM,BM KSL cells,22 and 21 and 23 and 20 and 19 and 18
same,phosphorylation of PAK1,"p-PAK1 in BM KSL cells; BM KSL cells, 1 μg/mL DJ001",increased phosphorylation
same,Figure 3d: p-PAK1 in BM KSL cells,p-PAK1 in BM KSL cells; individual replicates,50.24 and 54.07 and 49.55 and 58.02 and 54.95
same,Supplementary Figure 1: PTP1B activity,[1]; 0.27 μg/mL DJ001,97 and 90 and 91
same,Supplementary Figure 1: PTP1B activity,[1]; 2.7 μg/mL DJ001,96 and 86 and 90
same,Supplementary Figure 1: PTPN22 activity,[2]; 2.7 μg/mL DJ001,94 (2×) and 89
same,Supplementary Figure 1: PTPN22 activity,[2]; 0.27 g/mL DJ001,103 and 99 and 94
same,Supplementary Figure 1: RPTP activity,[3]; 2.7 μg/mL DJ001,83 and 98 and 86
same,Supplementary Figure 1: RPTP activity,[3]; 0.27 g/mL DJ001,92 and 99 and 95
same,Supplementary Figure 1: TCPTP activity,[4]; 2.7 μg/mL DJ001,91 and 103 and 88
same,Supplementary Figure 1: TCPTP activity,[4]; 0.27 g/mL DJ001,97 and 96 and 99
same,Supplementary Figure 1: LMPTP-A activity,[5]; 0.27 g/mL DJ001,100 and 90 and 93
same,Supplementary Figure 1: LMPTP-A activity,[5]; 2.7 g/mL DJ001,78 and 84 and 89
same,Supplementary Figure 1: PP activity,[6]; 2.7 μg/mL DJ001,87 and 90 and 89
same,Supplementary Figure 1: PP activity,[6]; 0.27 g/mL DJ001,99 and 95 (2×)
same,Supplementary Figure 1: MKP5 activity,[7],91 and 87 and 88
same,PB NEU counts per mouse (Figure 2i right panel),C57BL/6 mice; day 0 (pre-5FU),0.64 and 0.92 and 0.54 and 0.52
same,PB WBCs per mouse (Figure 2i left panel),C57BL/6 mice; day 0 (pre-5FU),7.24 and 8.98 and 6.9 and 7.26
same,PB NEU counts per mouse (Figure 2i right panel),C57BL/6 mice; [9],0.01 (2×) and 0.02 (4×) and 0.03
same,PB WBCs per mouse (Figure 2i left panel),C57BL/6 mice; [9],0.88 and 0.82 and 0.9 and 1 and 0.86 and 0.8 and 1.44
same,PB NEU counts per mouse (Figure 2i right panel),C57BL/6 mice; [10],0.08 and 0.14 and 0.11 and 0.12 and 0.07 (2×) and 0.54
same,PB WBCs per mouse (Figure 2i left panel),C57BL/6 mice; [10],0.78 and 3.32 and 1.78 and 2.76 and 1.44 and 3.6 and 2.12
same,PB WBCs and neutrophils vs 5FU control,C57BL/6 mice; day +14,significantly increased PB WBCs and neutrophils
same,PB NEU counts per mouse (Figure 2i right panel),C57BL/6 mice; [11],4.15 and 1.27 and 0.57 and 0.4 and 0.82 and 1.88 and 2.76
same,PB WBCs per mouse (Figure 2i left panel),C57BL/6 mice; [11],13.36 and 5.12 and 4.72 and 9.58 and 8.92 and 11.92 and 17.98
same,Supplementary Figure 1: LMPTP-B activity,[8]; 0.27 g/mL DJ001,96 and 90 and 99
same,Supplementary Figure 1: LMPTP-B activity,[8]; 2.7 g/mL DJ001,99 and 100 and 91
